Like-named read-outs stand apart in the source and are kept apart here.
Tests used:
[1] = assay type: in vivo, CD1 mice
Procedure: FIG. 12. Evaluation of PhAc-ALGP-Dox leucopenic effect in comparison with Doxorubicin. CD1 mice received twice daily intraperitoneal injections of PhAc-ALGP-Dox 35 μmol/kg (●) or of Doxorubicin 3.5 μmol/kg (▪) for five consecutive days. The mice body weight evolution was recorded (A). Blood was collected from the tail vein in heparinised Microvettes tubes (Starsted) at day 4, 11 and 15 after treatment initiation. Peripheral white blood cells (WBC) were counted using the SCILvet abc hematologic analyzer (B). The increase or decrease in WBC is expressed as a percentage of WBC on day 0 (100%) for each mouse. The curves show evolution of the mean percentages.
The leucopenic effects of PhAc-ALGP-Dox (35 μmol/kg ip) and of Doxorubicin (3.5 μmol/kg ip) were compared in two independent experiments. CD1 mice received two daily intraperitoneal injections of drugs for five consecutive days (total 10 injections/mouse; 2×5 animals per group). The mice body weight evolution was recorded. Blood was collected from the tail vein in EDTA-coated Microvettes tubes (Starsted) at day 4, 11 and 15 after treatment initiation. White blood cells (WBC) were counted using the SCILvet abc hematologic analyzer. The increase or decrease in WBC was expressed as a percentage of WBC on day 0 (100%) for each mouse.

[2] = system: orthotopic HCT116 human colon tumors; experiment: Orthotopic HCT116 colon carcinoma tumor model; assay type: in vivo, SCID mice
Procedure: (§1) FIG. 14. Evaluation of the antitumor effect of PhAc-ALGP-dox in SCID mice bearing orthotopic HCT116 human colon tumors. SCID mice were injected orthotopically (in the caecum) with human HCT116 colon tumor cells. One group was treated with saline while groups 2 and 3 received 10 intraperitoneal injections (2Q1D5) of 35 and 50 μmol/kg of PhAc-ALGP-doxorubicin. Primary tumor weights were recorded on day 34 post cell inoculation.
as §1, with “15.” for “14.”, “antimetastatic” for “antitumor”, “effect (in liver)” for “effect”, “Liver metastases” for “Primary tumor weights”
HCT116 cells were subcutaneously injected into SCID mice. Once xenografts were established, they were excised and orthotopically implanted into the ceacum of other female γ-irradiated SCID mice using microsurgical techniques. On day 12 after the cancer cells injection, the mice were randomized in four groups of 16. […] On day 34 after injection into the caecum of colonic cancer cells the animals were sacrificed, the number of metastases was counted macroscopically and the primary tumors weighted.

[3] = system: B16-F10 murine melanoma cells; assay type: in vivo, C57BL6 mice
Procedure: FIG. 11. Evaluation of PhAc-ALGP-Dox efficacy in comparison with Doxorubicin in the B16-F10 lung metastatic melanoma model. Graph on the left side represents quantification of melanin of lung metastasis at day 14 after injection of B16F10 tumor cells. Graph on the right side show the survival curves.
The efficacy of PhAc-ALGP-Dox was tested in the well described B16-F10 lung metastatic melanoma model. For that purpose, […] B16-F10 murine melanoma cells were injected in the lateral vein of C57BL6 mice. Treatments started three days after cells injection. Animal received twice a day (at 5-6 h interval) for 5 consecutive days intraperitoneal injections (total 10 injections/mouse) of saline or of Doxorubicin at 2 and 3.5 μmol/kg or of PhAc-ALGP-Dox at 50 μmol/kg. Five mice per group were sacrificed at day 14 after cells injection. Lungs were collected and processed for melanin quantification (Molecular Pharmacology, 74: 1576-1586, 2008). Survival was determined by observation of the remaining mice.

[4] = system: UZLX-STS3 dedifferentiated liposarcoma xenograft
From the text: FIG. 16. Effect of PhAc-ALGP on a UZLX-STS3 xenograft model. UZLX-STS3 is a tissue xenograft derived from a patient diagnosed with dedifferentiated liposarcoma (DDLPS).
A total of 24 mice were bilaterally transplanted with UZLX-STS3 (tissue xenografts of passage 10). Animals were randomly assigned to three different groups: a control group (saline; -●-); A PhAc-ALGP-doxorubicin group (cumulative dose 1.20 mmol/kg; -▪-) and a doxorubicin group (cumulative dose 0.03 mmol/kg; -▴-). The drugs were administered intraperitoneally during 7 days by continuous release via an Alzet® osmotic pump, with delivery rate of 0.5 μl/h over 7 days. The experiment lasted 21 days (7 days of treatment+14 days of observation). Tumor volume and mouse body weight were evaluated at baseline and subsequently three times per week until the end of each experiment. After 21 days mice were sacrificed. Tumor volume is recorded 3× weekly by 3-dimensional caliper measurement. Data are presented as the average of the relative tumor volumes per group±standard deviation.
The comparison between the tumor volumes on day zero and the volumes on the last day of the experiments was done by Wilcoxon's matched paired test. The comparisons between different groups were performed using the Mann-Whitney U test (relative tumor volumes, histologic assessment). […] The […] software (StatSoft, version 12.0) was used for all the calculations.
(§2) FIG. 18. Data are presented as the average of the white blood cell count of mice in every group±standard deviation. The dashed lines mark the reference values for nu/nu NMRI mouse strain. PhAc-ALGP-doxorubicin (-▪-); Dox (-▴-); and saline (-●-). Total white blood cell count was determined using the CELL-DYN 3500 multiparameter automated hematology analyzer with optimization for murine blood parameters (Abott Diagnostics, Division, Ill., USA)
as §2, with “19.” for “18.”, “neutrophil” for “white blood cell”, “Neutrophil” for “Total white blood cell”

[5] = in vivo; conditions: female, OF-1, mouse, iv, 86.2 umol/kg
[6] = Pharmacokinetics and heart tissue quantification after single iv bolus

For `COc1cccc2c1C(=O)c1c(O)c3c(c(O)c1C2=O)CC(O)(C(=O)CO)CC3OC1CC(NC(=O)C2CCCN2C(=O)CNC(=O)C(CC(C)C)NC(=O)C(C)NC(=O)CP(=O)(O)O)C(O)C(C)O1` (stereo not shown) [PhAc-ALGP-Dox, PhAc-ALGP-doxorubicin], which “leucopenic effect and body weight loss (in words)” value ([1]; 35 μmol/kg ip 2Q1D5) is on record?
Its value is “No leucopenic effect and body weight loss”.

What about the “number of hepatic metastases” value ([2]; 30 μmol/kg, day 34) of the same molecule?
The value was 24.

What about the primary tumor weight ([2]; 30 μmol/kg, day 34) of the same molecule?
The primary tumor weight was 0.69 g.

And the “mice surviving 34 days” value ([2]; 35 μmol/kg ip 2Q1D5, groups of 16)?
Its value is 12 mice.

And the “mice surviving 34 days” value ([2]; 50 μmol/kg ip 2Q1D5, groups of 16)?
Its value is 9 mice.

What about the “mean number of hepatic metastases” value ([2]; 50 μmol/kg, day 34) of the same molecule?
Its value is 1.78.

What about the primary tumor weight ([2]; 50 μmol/kg, day 34) of the same molecule?
Its primary tumor weight is 0.44 g.

What about the median survival ([3]; 50 μmol/kg ip 2Q1D5) of the same molecule?
Its median survival is 36 days.

And the “amount of melanin in lung homogenate” value ([3]; 50 μmol/kg ip 2Q1D5, day 14)?
The value was 16 mg/mL.

What about the “neutrophil count (in words)” value ([4]; 21 days after administration at 40-times higher dose than free doxorubicin) of the same molecule?
The value was “unchanged netrophil count”.

What about the “relative tumor volume at day 21” value ([4]; cumulative dose 1.20 mmol/kg ip via osmotic pump over 7 days, day 0 = 100%) of the same molecule?
Its value is 105%.

And the “total white blood cells and neutrophils (in words)” value ([4]; cumulative dose 1.20 mmol/kg, versus control or doxorubicin-treated animals)?
Its value is “No major changes”.

What about the AUC [5] of the same molecule?
The AUC was 97 µM·h.

And the “Dox heart AUC versus Dox administration (times lower)” value ([6]; equimolar 86.2 μmol/kg iv)?
The value was 25 times.

What about the “plasma AUC of Doxorubicin after Doxorubicin versus after PhAc-ALGP-Dox (times higher)” value ([6]; equimolar 86.2 μmol/kg iv) of the same molecule?
Its value is 63 times.

What about the “drug plasma concentration eliminated in the first five minutes” value ([6]; i.v. bolus 86.2 μmol/kg) of the same molecule?
Its value is “About 90%”.

And the “fraction hydrolysed into LGP-Dox, GP-Dox and Dox in plasma” value ([6]; i.v. bolus 86.2 μmol/kg)?
The value was “Less than 1%”.

What about the “time after which metabolites were no longer detected in plasma” value ([6]; i.v. bolus 86.2 μmol/kg) of the same molecule?
The value was 1 h.

What about the “Heart AUC of PhAc-ALGP-Dox” value ([6]; one i.v. bolus 86.2 μmol/kg) of the same molecule?
Its value is 23 pmol · h/mg protein.

Which mortality ([1]; 3.5 μmol/kg ip 2Q1D5, 2×5 animals) does the source give for `COc1cccc2c1C(=O)c1c(O)c3c(c(O)c1C2=O)C[C@@](O)(C(=O)CO)C[C@@H]3O[C@H]1C[C@H](N)[C@H](O)[C@H](C)O1` [Doxorubicin, reference compound] here?
The mortality was “one mouse was found dead at day 11 as well as 3 mice at day 15”.

And the mortality ([2]; 2 μmol/kg ip 2Q1D5, SCID mice)?
The mortality was “all animals died within 10 days”.

What about the median survival ([3]; 2 μmol/kg ip 2Q1D5) of the same molecule?
The median survival was 24 days.

What about the “amount of melanin in lung homogenate” value ([3]; 2 μmol/kg ip 2Q1D5, day 14) of the same molecule?
The value was 183 mg/mL.

What about the median survival ([3]; 3.5 μmol/kg ip 2Q1D5) of the same molecule?
Its median survival is 28 days.

What about the “amount of melanin in lung homogenate” value ([3]; 3.5 μmol/kg ip 2Q1D5, day 14) of the same molecule?
The value was 53 mg/mL.

What about the “relative tumor volume at day 21” value ([4]; ip, 30 umol/kg) of the same molecule?
The value was 246%.

And the AUC [5]?
The AUC was 63 µM·h.

What about the “drug plasma concentration eliminated in the first five minutes” value ([6]; i.v. bolus 86.2 μmol/kg) of the same molecule?
The value was “About 90%”.
